Results published in paper PMC10375536, “Discovery of High-Affinity Amyloid Ligands Using a Ligand-Based Virtual Screening Pipeline” (Journal of the American Chemical Society, 2023).
Where two headings read alike, the source gives them in different places. One block for each molecule: values may come before it.

Columns and labels:
Aβ(1-42) [1] = details: cited from earlier work
Aβ(1–42) fibrils = molecular target: T1, Aβ(1–42) fibrils (Homo sapiens, UniProt P05067); assay: Thioflavin T (ThT) fluorescence competition assay; assay type: binding; details: for ThT displacement in competition screen: Aβ(1–42) fibrils (250 nM); for ThT displacement in competition screen / Kd: ThT (1.0 μM), 1× PBS pH 7.4, 25 °C; for Kd: Aβ(1–42) fibrils (500 nM)
T1 construct: Monomeric Aβ(1-42) (1 mg: Rockland Immunochemicals, Limerick, PA, Lot #31541); purchased Rockland Immunochemicals, Limerick, PA Lot #31541 (a lot number; no catalogue number given)
T1 sequence (P05067 672-713 limits assumed): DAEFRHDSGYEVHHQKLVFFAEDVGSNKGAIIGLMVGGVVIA

Aβ(1-42) [2] = details: cited from earlier work; remark: listed apart in the source
[3] = average of fits from at least three independent experiments, read-out: Kd/nM
[4] = read-out: –log(Kd/M) (converted)
[5] = against [125I]BF-180, ref 10.1523/JNEUROSCI.4456-03.2004
[6] = against [125I]BF-180, ref 10.1523/JNEUROSCI.1738-05.2005
[7] = against [3H]BF-227, ref 10.1177/1536012118796297
[8] = direct binding, ref 10.1007/s00259-012-2261-2
[9] = against [125I]IMSB, ref 10.1016/j.bmcl.2011.08.003
[10] = against [125I]IMSB, ref 10.1021/jm010045q
[11] = against [125I]BF-180, ref 10.1385/JMN:24:2:247
[12] = direct binding, ref 10.1021/jm010045q

SMILES: CNc1ccc(/C=C/c2nc3cc(I)ccc3o2)cc1 [BF-180]
- Kd (Aβ(1-42) [1]; direct binding, ref 10.1523/JNEUROSCI.4456-03.2004): 10.6 nM

- ThT displacement in competition screen (Aβ(1–42) fibrils): displaced the greatest quantity of ThT
- Kd (Aβ(1–42) fibrils; [3]): 200 ± 100 nM
- Kd (Aβ(1–42) fibrils; [4]): 158 nM
SMILES: CN(CCCCc1ccccc1)C(=O)Nc1ccc2c(c1)OCC(=O)N2C [E163]

SMILES: Cc1c(OCC(F)(F)F)ccnc1C[S+]([O-])c1nc2ccccc2[nH]1 (stereo not shown) [LNS]
- Kd (Aβ(1-42) [1]; direct binding, ref 10.1021/cn500103u): 11 nM

SMILES: CN(C)c1ccc(-c2cc(-c3ccnc(Br)c3)[nH]n2)cc1 [[11C]MODAG-001]
- Kd (Aβ(1-42) [1]; direct binding, ref 10.1007/s00259-020-05133-x): 20 nM

SMILES: CN(C)c1ccc(-c2ccc3cc(-c4nc5ccccc5s4)c(=N)oc3c2)cc1 [ICTAD-1]
- Kd (Aβ(1-42) [1]; direct binding, ref 10.1039/d0sc02060e): 3780 nM

- ThT displacement in competition screen (Aβ(1–42) fibrils): displaced the greatest quantity of ThT
- Kd (Aβ(1–42) fibrils; [3]): 20 ± 10 nM
- Kd (Aβ(1–42) fibrils; [4]): 25.1 nM
SMILES: CCOc1ccc(CCN(C)C(=O)Nc2ccc3c(c2)CCC(=O)N3C)cc1 [E363]

- ThT displacement in competition screen (Aβ(1–42) fibrils): displaced the greatest quantity of ThT
- Kd (Aβ(1–42) fibrils; [3]): 600 ± 300 nM
- Kd (Aβ(1–42) fibrils; [4]): 501 nM
SMILES: Cc1ccc(C)c2c(C)c(C(=O)N3CCCc4c(OCC(N)=O)cccc43)oc12 [E197]

SMILES: CCN(CC)c1ccc(/C=C/c2nc3ccccc3o2)cc1 [BF-125]
- Ki (Aβ(1-42) [2]; [5]): 4.9 nM

SMILES: CC(C)CC1=[O+][B-](F)(F)OC(/C=C/c2ccc3cc(N(C)C)ccc3c2)=C1 [NAP-OB]
- Kd (Aβ(1-42) [1]; direct binding, ref 10.1016/j.bioactmat.2021.10.047): 0.62 nM

SMILES: CNc1ccc(-c2ccc3ccccc3n2)cc1 [BF-158]
- Ki (Aβ(1-42) [2]; [6]): > 5000 nM

SMILES: CNc1ccc(/C=C/c2ccc(OCCOCCOCCF)nc2)cc1 [AV-45, Florbetapir]
- Ki (Aβ(1-42) [2]; [7]): 12 nM

SMILES: CNc1ccc(-c2cc3cc(O)ccc3o2)c(F)n1 [Flutafuranol]
- Ki (Aβ(1-42) [2]; [7]): 42 nM

SMILES: CC(=C(C#N)C#N)c1ccc2cc(N(C)CCF)ccc2c1 [FDDNP]
- Kd (Aβ(1-42) [1]; [8]): 5.52 nM

SMILES: COc1cc(/C=C/C(=O)CC(=O)/C=C/c2ccc(O)c(OC)c2)ccc1O [Curcumin]
- Ki (Aβ(1-42) [2]; [9]): 3.57 nM

SMILES: COCCOCCn1c2ccccc2c2cc(/C=C/c3cc[n+](C)c4ccccc34)ccc21 [SLM]
- Kd (Aβ(1-42) [1]; direct binding, ref 10.1021/acsomega.8b00475): 11400 nM

SMILES: CN(C)c1ncc(/C=C/c2nc3ccc(OCCF)cc3o2)s1 [BF-227]
- Ki (Aβ(1-42) [2]; [7]): 12 nM
- Ki (Aβ(1-42) [2]; against [125I]BF-180, ref 10.2967/jnumed.106.037556): 4.3 nM
- Kd (Aβ(1-42) [1]; direct binding, ref 10.1177/1536012118796297): 15.7 nM
- Kd (Aβ(1-42) [1]; two-site model, Site 1, ref 10.1007/s00259-012-2261-2): 1.72 nM
- Kd (Aβ(1-42) [1]; two-site model, Site 1, ref 10.1016/j.ejphar.2009.06.042): 1.31 nM
- Kd (Aβ(1-42) [1]; two-site model, Site 1, ref 10.1021/acs.molpharmaceut.8b00229): 0.82 nM
- Kd (Aβ(1-42) [1]; two-site model, Site 2, ref 10.1007/s00259-012-2261-2): 56.1 nM
- Kd (Aβ(1-42) [1]; two-site model, Site 2, ref 10.1016/j.ejphar.2009.06.042): 80 nM
- Kd (Aβ(1-42) [1]; two-site model, Site 2, ref 10.1021/acs.molpharmaceut.8b00229): 125 nM

SMILES: CN(C)c1ccc(-c2nc3ccc(I)cc3s2)cc1 [[125I]TZDM]
- Kd (Aβ(1-42) [1]; direct binding, ref 10.1016/j.bmc.2011.03.029): 0.45 nM
- Kd (Aβ(1-42) [1]; direct binding, ref 10.5012/bkcs.2008.29.9.1765): 0.13 nM

SMILES: Nc1ccc(-c2ccc3ccccc3n2)cc1 [BF-170]
- Ki (Aβ(1-42) [2]; [6]): > 5000 nM

SMILES: CNc1ccc(/C=C/c2nc3ccc(OCCF)cc3o2)cc1 [BF-168]
- Ki (Aβ(1-42) [2]; [5]): 6.4 nM

SMILES: COc1ccc(C=Cc2ccc(C=Cc3ccc(OC)c(C(=O)O)c3)c(I)c2)cc1C(=O)O [IMSB]
- Ki (Aβ(1-42) [2]; [10]): 0.8 nM
- Kd (Aβ(1-42) [1]; direct binding, ref 10.1021/ja0167147): 0.73 nM

SMILES: Oc1c(I)cc(Cl)c2cccnc12 [CQ]
- Kd (Aβ(1-42) [1]; direct binding, ref 10.1016/j.bios.2017.06.030): 86 nM

SMILES: CN(C)c1ccc(C=CC(=O)c2ccc(I)cc2)cc1 [[125I]DMIC]
- Kd (Aβ(1-42) [1]; direct binding, ref 10.1016/j.bmc.2007.07.052): 4.2 nM

SMILES: Nc1ccc(/C=C/c2nc3cc(F)ccc3o2)cc1 [BF-140]
- Ki (Aβ(1-42) [2]; [11]): 2.1 nM

SMILES: CNc1ccc(-c2nc3ccc(O)cc3s2)cc1F [Flutemetamol]
- Ki (Aβ(1-42) [2]; [7]): 65 nM

SMILES: COCCOCCOCCOC(=O)/C(C#N)=C/c1ccc2cc(N3CCCCC3)ccc2c1 [ANCA-11]
- Kd (Aβ(1-42) [1]; direct binding, ref 10.1021/cn200018v): 1400 nM

SMILES: COc1ccc(/C=C/c2ccc(/C=C/c3ccc(OC)c(C(=O)O)c3)c(I)c2)cc1C(=O)O [[125I]IMSB]
- Kd (Aβ(1-42) [1]; [12]): 0.73 nM

SMILES: CN(C)c1ccc(/N=N/c2nc3ccc(OCCOCCOCCF)cc3s2)cc1 [FPPDB]
- Ki (Aβ(1-42) [2]; against ThS, ref 10.1021/ml200230e): 20 nM

SMILES: O=[N+]([O-])c1ccc2c(c1)Sc1cc(OC/C=C/I)ccc1N2 [[125I]SIL23]
- Kd (Aβ(1-42) [1]; direct binding, ref 10.1371/journal.pone.0055031): 635 nM

SMILES: C#CCN(C)CCCOc1ccc(Cl)cc1Cl [Clorgyline]
- Ki (Aβ(1-42) [2]; [7]): > 9000 nM

SMILES: O=C(O)c1cc(/N=N/c2ccc(-c3ccc(/N=N/c4ccc(O)c(C(=O)O)c4)cc3)cc2)ccc1O [CG]
- Ki (Aβ(1-42) [2]; [9]): 0.43 nM
- Ki (Aβ(1-42) [2]; [10]): 0.4 nM

SMILES: CC1(C)C(/C=C/C2=C(c3ccc(CCC(=O)O)cc3)C(=C/C=C3/N(CCC[N+](C)(C)C)c4ccc(S(=O)(=O)O)cc4C3(C)C)/CCC2)=[N+](CCC[N+](C)(C)C)c2ccc(S(=O)(=O)O)cc21 [ZW800-1C]
- Kd (Aβ(1-42) [1]; direct binding, ref 10.1038/s41551-023-01003-7): 78.9 nM

SMILES: Cc1ccc2c(c1)sc(-c1ccc(N(C)C)cc1)[n+]2C [ThT, Thioflavin T]
- Ki (Aβ(1-42) [2]; [10]): > 4000 nM
- Kd (Aβ(1-42) [1]; direct binding, ref 10.1002/chem.201800501): 665 nM
- Kd (Aβ(1-42) [1]; direct binding, ref 10.1016/j.bmc.2011.09.065): 2560 nM
- Kd (Aβ(1-42) [1]; direct binding, ref 10.1021/acs.analchem.2c02532): 117 nM
- Kd (Aβ(1-42) [1]; direct binding, ref 10.1021/acs.jmedchem.5b00571): 32 nM
- Kd (Aβ(1-42) [1]; direct binding, ref 10.1021/acschemneuro.6b00380): 1940 nM
- Kd (Aβ(1-42) [1]; direct binding, ref 10.1021/acschemneuro.6b00450): 430 nM

SMILES: CN(C)c1ccc(/N=N/c2nc3ccc(OCCOCCOCCF)cc3s2)cc1 [[18F]FPPDB]
- Kd (Aβ(1-42) [1]; direct binding, ref 10.1021/ml200230e): 45.4 nM

- ThT displacement in competition screen (Aβ(1–42) fibrils): displaced the greatest quantity of ThT
- Kd (Aβ(1–42) fibrils; [3]): 56 ± 6 nM
SMILES: COc1cc(F)c(C(C)NC(=O)NCCN2c3ccccc3CC2C)cc1OC (stereo not shown) [E704]

SMILES: O=C(O)c1cc(C=Cc2ccc(C=Cc3ccc(O)c(C(=O)O)c3)c(I)c2)ccc1O [[125]ISB]
- Kd (Aβ(1-42) [1]; [12]): 0.15 nM

SMILES: Cc1cc(-c2ccc(/N=N/c3ccc4c(S(=O)(=O)O)cc(S(=O)(=O)O)c(N)c4c3O)c(C)c2)ccc1/N=N/c1ccc2c(S(=O)(=O)O)cc(S(=O)(=O)O)c(N)c2c1O [Honson2b (Evan's blue), Evan's blue]
- Ki (Aβ(1-42) [2]; against ThS, ref 10.1016/j.nbd.2007.07.018): 180 nM

SMILES: CN(C)c1ccc(/C=C/c2nc3ccc(I)cc3[nH]2)cc1 [SBIM-3]
- Kd (Aβ(1-42) [1]; direct binding, ref 10.1016/j.bmc.2013.02.054): 820 nM

SMILES: CN(C)c1ccc(-c2nc3ccc(I)cc3s2)cc1 [TZDM]
- Ki (Aβ(1-42) [2]; [10]): > 5000 nM
- Kd (Aβ(1-42) [1]; [12]): 0.14 nM

- ThT displacement in competition screen (Aβ(1–42) fibrils): displaced the greatest quantity of ThT
- Kd (Aβ(1–42) fibrils; [3]): 20 ± 10 nM
- Kd (Aβ(1–42) fibrils; [4]): 25.1 nM
- bound ThT displaced (Aβ(1–42) fibrils; titration into Aβ(1–42) fibrils (500 nM) and ThT (1.0 μM)): about half
SMILES: CCOc1ccccc1OCC(=O)Nc1ccc(-c2ncc3n2CCCC3)cc1 [E570]

SMILES: Cc1cc(/C=C/c2ccc(N(C)C)cc2)n2c1C=C1C=CC=[N+]1[B-]2(F)F [BAP-1]
- Kd (Aβ(1-42) [1]; direct binding, ref 10.1021/cn3000058): 44.1 nM

SMILES: Nc1ccc(-c2ccc3cc(OCCF)ccc3n2)cc1 [THK-523]
- Kd (Aβ(1-42) [1]; [8]): 30.3 nM
- Kd (Aβ(1-42) [1]; direct binding, ref 10.1093/brain/awr038): 20.7 nM

SMILES: CNc1ccc(/C=C/c2nc3cc(F)ccc3o2)cc1 [BF-145]
- Ki (Aβ(1-42) [2]; [11]): 4.5 nM

SMILES: CN(C)c1ccc(/C=C/c2ccc3ccc(OCCF)cc3n2)cc1 [SQ3]
- Ki (Aβ(1-42) [2]; against [125I]ISQ, ref 10.1021/acsmedchemlett.2c00279): 230 nM

SMILES: CN(C)c1ccc(-c2ccc3cc(OCC(O)CF)ccc3n2)cc1 (stereo not shown) [THK-5105]
- Kd (Aβ(1-42) [1]; direct binding, ref 10.2967/jnumed.112.117341): 35.9 nM
